Laboratory results: paper PMC12392461, “Beyond Estrogenicity: A Comparative Assessment of Bisphenol A and Its Alternatives in In Vitro Assays Questions Safety of Replacements” (Environmental Science & Technology, 2025)
Read-outs that look alike come from different tables or passages of the source.

Legend:
[1] = tested on: ERα-UAS-bla GripTite cells; settings: for TKcytotoxicity: TKcytotoxicity-Ratio
Procedure: Cell culture conditions and bioassay protocols including response detection are provided in Text S2.1–2.4 and Table S3. − Cell viability was determined from cell confluency using an IncuCyte S3 Live-Cell Analysis System (Sartorius AG, Essen, Germany) before and after exposure, except for SH-SY5Y cells (live–dead staining with Nuclear Green LcS1 and propidium iodide, Abcam, UK). For metabolic activation experiments, cell viability was assessed using the ToxBLAzer DualScreen Kit (Thermo Fisher Scientific) to capture the remaining toxicity in ERα-UAS-bla GripTite after treatment with the aCYP catalyst (details in Text S2.4). […]
The TK-Ratio method was used to evaluate the impact of abiotic CYP oxidation on the potency of tested compounds. […]
For experiments with the preceding aCYP activation, ERα cell viability was additionally calculated from the readout of the ToxBLAzer reagent. The ToxBLAzer assay was conducted following the manufacturer's instructions (Thermo Fisher, Waltham, MA, U.S.).13 Fluorescence intensity was recorded at the start of the assay ( Fwavelength(0h)) and after a 2-hour incubation at […]
eq. S11 for normalization.
Cell viability = F665nm(2h, sample)-F665nm(0h, average cell-free) (S11) F665nm(2h, average unexposed)-F665nm(0h, average cell-free) […]
the specific endpoint to avoid artifacts from cytotoxicity burst. 15
S2.5: Concentration-response curves (CRCs)
To avoid bias from cytotoxicity burst at higher concentrations, all concentrations exceeding the IC10 for cytotoxicity were excluded in the CRC modeling of effects but otherwise cytotoxicity and effects were fitted with the same model equations (response stands for cytotoxicity or effect). For ERα, AhR, ARE and PPARγ preferably a linear model was fitted to the linear portion of CRC up to maximum 30% effect (eq. S12),16 but in some cases it was necessary to choose a sigmoidal log-concentration-response model, specifically a log-logistic model (eq. S13), to derive effect concentrations and cytotoxicity. […]
This was done using the
AutomatedBioassayScreening19 published by Braun et al.,20 which also included an algorithm to choose the best model between eq. S12 and eq. S13.
Response (%) = slope × C (S12) […]
logEC =logEC − 1 ∙log (max−min − 100%) (S14)

[2] = Abiotic CYP (aCYP) oxidation, remaining parent compound (Cparent-Ratio); settings: for Cparent-Ratio Rep.1 %: Table S9, replicate 1; for Cparent-Ratio Rep.2 %: Table S9, replicate 2
Procedure: The mixtures were adjusted to a final volume of 100 μL with acetonitrile (ACN). The reaction mix was incubated for 15 min at 30 °C and 1000 rpm on a Bioshake iQ orbital shaker from QInstruments (Jena, Germany). Additionally, a mixture without test compounds was prepared as a control. Subsequently, 10 μL of the reaction mixture was transferred into a conical dosing vial and evaporated under a nitrogen flow.
For chemical analysis, 10 μL of the reaction mixture was concentrated under vacuum (CentriVap, Labconco, Kansas City, MO, USA), diluted to 1 mg/L in ACN or ethyl acetate. The chemical analysis of the reaction mixtures was performed using liquid chromatography (LC) and gas chromatography (GC) coupled with various detection techniques, preferably Multiple Reaction Monitoring (MRM). Data acquisition and processing were carried out using the software MassHunter. Quantification was based on external calibrations.
The Cparent-Ratio quantifies the extent of oxidation of the parent compound after the abiotic CYP reaction. It was calculated as the ratio of the parent compound concentration after oxidation (C parent, after oxidation) to its concentration before oxidation (C parent, before oxidation) as shown in eq . […] 8 Cparent‐Ratio=Cparent,after oxidation/Cparent,before oxidation

H4IIe (AhR CALUX) = settings: for IC10, linear transformed / IC10, linear / logIC10: Bioassay AhR, dosing range all; for IC10, linear transformed / IC10, linear / logIC10 / IC10, H4IIe, AhR: cytotoxicity; for IC10, linear: linear model fit; for logIC10: log-logistic model fit; for IC10, H4IIe, AhR: H4IIe (AhR assay cells)
Method in brief: (§1)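 Cells were seeded and incubated 24 h, then dosed with 11-step serial dilutions of each chemical in duplicate (methanol below 1%). Confluency was imaged before and after a further 24 h at 37 °C. IC10 from this viability served as the cut-off for deriving effect concentrations.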

HEK293H (PPARγ) = settings: for IC10, linear transformed / IC10, linear / logIC10: PPARγ bioassay cytotoxicity; for IC10, linear: linear model; for logIC10: log-logistic model; for IC10, HEK293, PPARγ: cytotoxicity, HEK293 (PPARγ assay cells)
Method in brief: as §1

HEK293T (ERα) = settings: for IC10, linear transformed / IC10, linear / logIC10: dosing range all; for IC10, HEK293, ERα: HEK293 (ERα assay cells)
Method in brief: as §1

[3] = Table S9, loss of parent after aCYP oxidation
[4] = Bioassay ERα, cytotoxicity, linear model fit
[5] = Bioassay ERα, cytotoxicity, log-logistic model fit
[6] = Table S9, mean of two replicate experiments
[7] = Table S9, replicate 1, as fraction
[8] = Table S9, replicate 2, as fraction
[9] = Table S11, measured simultaneously with bioassay

C=CCOc1ccc(S(=O)(=O)c2ccc(O)cc2)cc1 [BPS-MAE, 4-[[4-(Allyloxy)phenyl]sulfonyl]phenol]
TKcytotoxicity ([1]; Table S10): 2.91
% Loss [2, 3]: 1.47%
IC10, linear transformed (H4IIe (AhR CALUX)): 8.61E-05
IC10, linear (H4IIe (AhR CALUX)): 8.24E-05
logIC10 (H4IIe (AhR CALUX)): -4.07
IC10, H4IIe, AhR (H4IIe (AhR CALUX)): 82.4 µM
IC10, linear transformed (HEK293H (PPARγ); dosing range all): 1.96E-05
IC10, linear (HEK293H (PPARγ); dosing range all): 9.34E-05
logIC10 (HEK293H (PPARγ); dosing range all): -4.24
IC10, HEK293, PPARγ (HEK293H (PPARγ)): 57.5 µM
IC10, linear transformed (HEK293T (ERα); Bioassay ERα, cytotoxicity): 6.22E-05
IC10, linear (HEK293T (ERα); [4]): 2.44E-04
logIC10 (HEK293T (ERα); [5]): -3.85
IC10, HEK293, ERα (HEK293T (ERα); cytotoxicity): 244 µM

Cc1ccc(S(=O)(=O)NC(=O)Nc2ccc(Cc3ccc(NC(=O)NS(=O)(=O)c4ccc(C)cc4)cc3)cc2)cc1 [BTUM, 4,4'-Bis(p-tolylsulfonylureido)diphenylmethane]
IC10, before oxidation ([1]; Table S10, cytotoxicity from ToxBLazer data, without simultaneous cparent measurement): no cytotoxicity
TKcytotoxicity ([1]; Table S11): 2.25
reduction of C parent after aCYP oxidation ([2]; 15 min, 30 °C): 70%
% Loss [2, 3]: 70%
Cparent-Ratio Mean [2, 6]: 0.30
Cparent-Ratio Rep.1 % [2]: 26.78%
Cparent-Ratio Rep.1 [2, 7]: 0.27
Cparent-Ratio Rep.2 % [2]: 33.79%
Cparent-Ratio Rep.2 [2, 8]: 0.34
% Loss ([2]; Table S11): 79%
Cparent-Ratio Mean [2, 9]: 0.21
Cparent-Ratio Rep.1 [2, 9]: 0.23
Cparent-Ratio Rep.2 [2, 9]: 0.18
IC10, linear (H4IIe (AhR CALUX)): no cytotoxicity
logIC10 (H4IIe (AhR CALUX)): no cytotoxicity
IC10, linear (HEK293H (PPARγ); dosing range all): 4.34E-05
logIC10 (HEK293H (PPARγ); dosing range all): -4.51
Toxic ratio (TR) TRPPARγ (HEK293H (PPARγ); against baseline cytotoxicity): 0.91
IC10, HEK293, PPARγ (HEK293H (PPARγ)): 31 µM
IC10, linear (HEK293T (ERα); [4]): 3.66E-05
logIC10 (HEK293T (ERα); [5]): no cytotoxicity

CC(C)(c1cc(Cl)c(O)c(Cl)c1)c1cc(Cl)c(O)c(Cl)c1 [TCBPA, 2,2',6,6'-Tetrachlorobisphenol A]
TKcytotoxicity ([1]; Table S10): 0.85
TKcytotoxicity ([1]; Table S11): 0.40
IC10, linear transformed (H4IIe (AhR CALUX)): 9.01E-05
IC10, linear (H4IIe (AhR CALUX)): no cytotoxicity
logIC10 (H4IIe (AhR CALUX)): -4.05
IC10, H4IIe, AhR (H4IIe (AhR CALUX)): 90.1 µM
IC10, linear transformed (HEK293H (PPARγ); dosing range high): 5.23E-06
IC10, linear (HEK293H (PPARγ); dosing range high): 1.84E-05
logIC10 (HEK293H (PPARγ); dosing range high): -4.74
IC10, linear transformed (HEK293H (PPARγ); dosing range low): 7.55E-07
IC10, linear (HEK293H (PPARγ); dosing range low): no cytotoxicity
logIC10 (HEK293H (PPARγ); dosing range low): no cytotoxicity
IC10, HEK293, PPARγ (HEK293H (PPARγ)): 18.4 µM
IC10, linear transformed (HEK293T (ERα); Bioassay ERα, cytotoxicity): 6.86E-06
IC10, linear (HEK293T (ERα); [4]): 1.51E-05
logIC10 (HEK293T (ERα); [5]): -4.77
IC10, HEK293, ERα (HEK293T (ERα); cytotoxicity): 15.1 µM

CC1(C)[C@H](O)C(C)(C)[C@H]1O [Trans TMCD]
IC10, linear transformed (H4IIe (AhR CALUX)): 1.03E-02
IC10, linear (H4IIe (AhR CALUX)): 8.94E-03
logIC10 (H4IIe (AhR CALUX)): -1.99
IC10, linear transformed (HEK293H (PPARγ); dosing range all): 1.52E-03
IC10, linear (HEK293H (PPARγ); dosing range all): no cytotoxicity
logIC10 (HEK293H (PPARγ); dosing range all): no cytotoxicity
IC10, linear transformed (HEK293T (ERα); ERα bioassay cytotoxicity): 5.38E-03
IC10, linear (HEK293T (ERα); ERα bioassay cytotoxicity, linear model): no cytotoxicity
logIC10 (HEK293T (ERα); ERα bioassay cytotoxicity, log-logistic model): no cytotoxicity

CC1(C)[C@H](O)C(C)(C)[C@H]1O [t-TMCD, trans-2,2,4,4-Tetramethyl-1,3-cyclobutanediol]
TKcytotoxicity ([1]; Table S10): 1.74
% Loss [2, 3]: 0.48%
Cparent-Ratio Mean [2, 6]: 1.00
Cparent-Ratio Rep.1 % [2]: 90.48%
Cparent-Ratio Rep.1 [2, 7]: 0.90
Cparent-Ratio Rep.2 % [2]: 108.56%
Cparent-Ratio Rep.2 [2, 8]: 1.09
Toxic ratio (TR) TRAhR (H4IIe (AhR CALUX); against baseline cytotoxicity): 0.11
IC10, H4IIe, AhR (H4IIe (AhR CALUX)): 8940 µM
